Literature values as cited in patent US6846809B2, “PEI: DNA vector formulations for in vitro and in vivo gene delivery” (Board of Regents, The University of Texas System, priority 2000, dated 2005).
Where a name gives a salt, the structure may show the parent alone. Read-outs that look alike come from different tables or passages of the source. *1 amine or outer side, *2 acyl side, *3 side chain or, on linkers, in order; H or OH if unused. Where a SMILES comes first, the peptide text is derived from it. Bridges are numbered along the chain shown (N, C = ends). Roman numbers before positions name the chains, in order. [ ]: non-standard residue; d: D form. Actinocin(9to1) = Cc1c2oc3c(C)ccc(C(=O)[*:1])c3nc-2c(C(=O)[*:2])c(N)c1=O; NMeV = CN[C@H](C(=O)O)C(C)C; Sar = CNCC(=O)O

How the values were obtained:
[1] = system: chronic myelogenous leukemia; settings: previously untreated
[2] = system: multiple myeloma; settings: oral administration
[3] = system: certain animal tumors; settings: in vivo
[4] = mouse, in vivo
[5] = system: Hodgkin's Disease, testicular tumors, squamous cell cancers

In the case of `Cc1c2oc3c(C)ccc(C(=O)N[C@@H]4C(=O)N[C@H](C(C)C)C(=O)N5CCC[C@H]5C(=O)N(C)CC(=O)N(C)[C@@H](C(C)C)C(=O)O[C@@H]4C)c3nc-2c(C(=O)N[C@@H]2C(=O)N[C@H](C(C)C)C(=O)N3CCC[C@H]3C(=O)N(C)CC(=O)N(C)[C@@H](C(C)C)C(=O)O[C@@H]2C)c(N)c1=O` [Actinomycin D] (I: T[dV]P[Sar][NMeV] / II: T[dV]P[Sar][NMeV]; ester I:1-I:C, II:1-II:C; linker I:N-II:N via Actinocin(9to1)), the blood-brain barrier passage (human, in vivo) is listed as “does not pass the blood-brain barrier”, the “fraction of dose excreted in the urine” value (human, in vivo) is listed as 10% and the “fraction of dose excreted intact into the bile” value (human, in vivo) is listed as “Half of the dose”. For the same compound, the half-life (human, in vivo) was “about 36 hours”.

In the case of `CS(=O)(=O)OCCCCOS(C)(=O)=O` [Busulfan, 1,4-butanediol dimethanesulfonate], the “adults obtaining hematologic remission” value [1] is given as “Approximately 90%”.

For `O=C(O)CCCc1ccc(N(CCCl)CCCl)cc1` [Chlorambucil, 4-[bis(2-chlorethyl)amino] benzenebutanoic acid], the “oral / gastrointestinal absorption” value (human, in vivo) is listed as “rapidly and completely absorbed”, the terminal half-life (plasma) is listed as “about 1.5 hours” and the “time to peak plasma levels” value (single oral doses of about 0.6 mg/kg to about 1.2 mg/kg) is listed as “within one hour”.

In the case of `O.O=P1(N(CCCl)CCCl)NCCCO1` (centres unmarked) [Cyclophosphamide, 2H-1,3,2-Oxazaphosphorin-2-amine, N,N-bis(2-chloroethyl)tetrahydro-, 2-oxide, monohydrate], the “stability in the gastrointestinal tract” value (human, in vivo) is given as “stable in the gastrointestinal tract” and the local tolerance (oral and parental routes) is given as “does not cause local vesication, necrosis, phlebitis or even pain”.

For `COc1cccc2c1C(=O)c1c(O)c3c(c(O)c1C2=O)C[C@@](O)(C(C)=O)C[C@@H]3O[C@H]1C[C@H](N)[C@H](O)[C@H](C)O1` [Daunorubicin, 5,12-Naphthacenedione, (8S-cis)-8-acetyl-10-[(3-amino-2,3,6-trideoxy-a-L-lyxo-hexanopyranosyl)oxy]-7,8,9,10-tetrahydro-6,8,11-trihydroxy-10-methoxy-, hydrochloride], the elimination half-life (human, in vivo) is given as “about 19 hours”, the “fraction secreted into the bile” value (human, in vivo) is given as “about 40%” and the half-life of distribution (human, in vivo) is given as 45 min. For the same compound, the “oral / gastrointestinal absorption” value (human, in vivo) was “poor”.

In the case of `COc1cccc2c1C(=O)c1c(O)c3c(c(O)c1C2=O)C[C@@](O)(C(=O)CO)C[C@@H]3O[C@H]1C[C@H](N)[C@H](O)[C@H](C)O1` [Doxorubicin, 5,12-Naphthacenedione, (8s-cis)-10-[(3-amino-2,3,6--trideoxy-a-L-lyxo-hexopyranosyl)oxy]-7,8,9,10-tetrahydro-6,8,11-trihydroxy-8-(hydroxyacetyl)-1-methoxy-hydrochloride], the elimination half-life (human, in vivo) is given as “about 30 hours” and the “fraction of dose excreted in the urine” value (human, in vivo) is given as “a few percent”.

In the case of `O=NN(CCCl)C(=O)NC1CCCCC1` [Lomustine, 1-(2-chloro-ethyl)-3-cyclohexyl-1 nitrosourea], the “serum half-life of the metabolites” value (human, in vivo) is given as 16 hours to about 2 days and the “radioactivity excreted as degradation products within 24 hours” value (oral radioactive drug, about 30 mg/m^2 to 100 mg/m^2) is given as “about half”.

For `N[C@@H](Cc1ccc(N(CCCl)CCCl)cc1)C(=O)O` [Melphalan, 4-[bis(2-chloroethyl)amino]-L-phenylalanine], the “patients showing a favorable response” value [2] is listed as “about one third to one half”.

For `CO[C@@]12[C@H](COC(N)=O)C3=C(C(=O)C(C)=C(N)C3=O)N1C[C@@H]1N[C@@H]12` [Mitomycin], the “time required to reduce the serum concentration by about 50%” value (30 mg bolus injection) is given as 17 min and the “fraction of dose excreted in the urine” value (human, in vivo) is given as “Approximately 10%”.

For `CC[C@]1(O)C[C@@H]2CN(CCc3c([nH]c4ccccc34)[C@@](C(=O)OC)(c3cc4c(cc3OC)N(C)[C@H]3[C@@](O)(C(=O)OC)[C@H](OC(C)=O)[C@]5(CC)C=CCN6CC[C@]43[C@@H]65)C2)C1` [Vinblastine], the “fraction of dose recovered in the feces” value (after biliary excretion) is listed as “about 10%”, the “distribution into blood cells” value (human, in vivo) is listed as “extensively concentrated in platelets” and the “fraction of dose excreted in the urine” value (human, in vivo) is listed as “Approximately 15%”.

For `CC[C@]1(O)C[C@H]2CN(CCc3c([nH]c4ccccc34)[C@@](C(=O)OC)(c3cc4c(cc3OC)N(C=O)[C@H]3[C@@](O)(C(=O)OC)[C@H](OC(C)=O)[C@]5(CC)C=CCN6CC[C@]43[C@@H]65)C2)C1` [Vincristine], the “distribution into blood cells” value (human, in vivo) is listed as “extensively concentrated in platelets”.

For `COc1cccc2c1C(=O)c1c(O)c3c(c(O)c1C2=O)C[C@@](O)([C@H](C)O)C[C@@H]3O[C@H]1C[C@H](N)[C@H](O)[C@H](C)O1` [daunorubicinol], the half-life (human, in vivo) is listed as “about 27 hours”.

For `N[C@H](Cc1ccc(N(CCCl)CCCl)cc1)C(=O)O` [medphalan], the “activity compared with the L-isomer” value [3] is given as “less active against certain animal tumors”.

For Bleomycin, the “fraction of dose excreted in the urine” value (human, in vivo) is listed as 60-70%, the “concentrations in hematopoietic tissue / bone marrow” value [4] is listed as “low concentrations” and the “concentrations in skin, lungs, kidneys, peritoneum, and lymphatics” value [4] is listed as “high concentrations”. For the same compound, the time to improvement ([5]; Hodgkin's Disease and testicular tumors) was at most 2 weeks and the time to improvement ([5]; squamous cell cancers) was at most 3 weeks.
